Data taken from ChEMBL document CHEMBL3507680, “University of Dundee, Gates Library screen for HepG2 cell viability”.

experiment: Human HepG2 cell viability assay in 384 well format; type: toxicity, cell-based; design: dose 125 nL, time 70.5 hour; concentration not given beside the values; conditions: HepG2 cells, read-out: Inhibition

SMILES	cytotoxicity at 70.5 h [%]
CC(=O)Nc1nc(C2CCN(C(=O)c3ccncc3)CC2)cs1	24.9
Cc1ccc(-c2cn[nH]c2C2CCCN(c3ccnc(C)n3)C2)cc1 (configuration not stated)	-1.31
Cn1cc(C[C@H]2[C@H](O)CCN2CC2CCOCC2)cn1	-6.28
Cc1cccc(CN2C[C@H]3CCC[C@@]3(COCc3csc(C)n3)C2)n1	-6.32
CSc1ccccc1C(=O)N1CCOC(CCN(C)C)C1 (configuration not stated)	-15.3
c1nc(COCC2CC2)c2n1CCCN(CC1CC1)C2	-18.3
CC1COCCN1C(=O)NCCn1ccnc1 (configuration not stated)	-3.25
CCCOC(=O)c1ccc(-c2ccc(/C=C3\C(=O)NC(=N)N3C)o2)cc1	18.1
CC[C@H]1CN2CC[C@H]1C[C@@H]2CNC(=O)Nc1ccc(Br)cc1	-0.477
COCCn1cnnc1C1CCCN(C(C)C)C1 (configuration not stated)	17.1
CN(CCc1ccccn1)C(=O)C(c1cccnc1)N1CCOCC1 (configuration not stated)	-1.97
CN(C)S(=O)(=O)N1CCC[C@]2(C[C@@H](Oc3ncccc3F)CO2)C1	-11.4
O=C(NC1CC1)N1CCOC2(CCCN(c3cccc(F)c3)C2)C1 (configuration not stated)	-3.8
c1coc(CN2CCc3nnc(COc4cncnc4)n3CC2)c1	-13.1
CC(Cn1ccnc1)NC(=O)N1CCN(Cc2ccsc2)CC1 (configuration not stated)	-2.59
Cc1ccc(CN2C[C@@H]3C[C@H](C(=O)NCC4CC4)N(C)[C@@H]3C2)o1	10.1
CN(C(=O)CN1CCC(NC(=O)c2cccs2)CC1)c1ccccc1	-6.85
COCCN1C(=O)CC(c2cccnc2)C12CCN(C(=O)C1CC1)CC2 (configuration not stated)	-0.348
COc1c(CNCCNC(=O)Cc2ccc(F)cc2)c(C)nn1C	34.8
Cc1noc(C2(NC(=O)c3cccnc3O)CCCCC2)n1	2.75
Cc1nc(CN2CCCN(C(=O)CC(C)n3cccc3)CC2)cs1 (configuration not stated)	-12.7
O=C(CN1CC(c2nc(C3CC3)no2)C1)NCC1CCCO1 (configuration not stated)	3.91
CCc1noc(CN(CCS(C)(=O)=O)C(C)(C)C)n1	20.2

SMILES	cytotoxicity at 70.5 h [%]
COc1ccc(C)cc1-n1cnnc1C1CCCN(C)C1 (configuration not stated)	9.2
CN1C(=O)CCc2cc(NC(=O)C3CCCC3)ccc21	26.5
COc1c(CNCC(O)c2ccccc2)c(C(C)C)nn1C (configuration not stated)	-9.73
CNc1ncc(CN(C)C(=O)c2ccccc2C2CCNC2)cn1 (configuration not stated)	1.83
COC(=O)c1ccc(Cn2cccc(C(F)(F)F)c2=O)c(OC)c1	21.6
COC(=O)C(C)(C)NC(=O)C1CC(=O)N(CC(C)C)C1 (configuration not stated)	-0.314
Cn1cccc1C(=O)N1CC[C@@]2(O)CCN(S(C)(=O)=O)C[C@H]2C1	-6.36
c1cc(CN2CCCC(c3ccnc4nccn34)C2)ccn1 (configuration not stated)	-3.33
O=C(CCOc1ccccc1F)N1CCCCC1Cn1cccn1 (configuration not stated)	-4.38
CC(CC#N)N(C)Cc1ccc(F)cc1C#N (configuration not stated)	11.9
O=C(NC[C@H]1OC[C@@H](NC2CCC(F)(F)CC2)[C@@H]1O)c1cccs1	-5.94
NC1CCCN(Cc2cccc(C(F)(F)F)c2)C1=O (configuration not stated)	-7.1
COC(=O)N1CCC2(CC1)CC(c1ccccc1)CN(C)C2 (configuration not stated)	-0.459
Cc1nc(C)n(CCNS(=O)(=O)NCc2ccccc2)n1	-15.5
CN1C[C@H]2CC[C@@H]1CN(C(=O)COCc1nc3cc(F)ccc3[nH]1)C2	27.3
Cc1cccc(CN2CC[C@@H]3[C@@H]2CCN3C(=O)c2ccoc2C)n1	0.304
Cc1nn2c(-c3snnc3C)nnc2s1	27.8
Cc1csc(CNC(=O)NCC(O)c2ccccc2)n1 (configuration not stated)	-4.81
Cc1sc2nc(CCN)nc(N3CCS(=O)(=O)CC3)c2c1C	-0.146
Cc1cnnn1Cc1nnn2c1CN(Cc1cccs1)CCC2	-1.92
CCN1CCC(N2C[C@@H](C(=O)O)[C@H](c3cccc(OC)c3)C2)CC1	-0.816
Cc1nc(Nc2ncc(C)s2)cc(C2CCCN2S(C)(=O)=O)n1 (configuration not stated)	-13.7
Cc1cc(NC2CC3(CCN(Cc4ncccc4F)C3)C2)ncn1 (configuration not stated)	-3.79

SMILES	cytotoxicity at 70.5 h [%]
O=C1N(Cc2cccnc2)CCC12CCCNC2 (configuration not stated)	10.6
c1ccc(-c2nc(CNC3CCc4ncnn4C3)cs2)cc1 (configuration not stated)	0.00764
O=C(C1CCCCN1Cc1nccn1CC(F)(F)F)N1CCCC1 (configuration not stated)	-2.02
CC(C)CCN1CC2(CCN(C(=O)C3(C)CC3)CC2)OC1=O	-0.562
COc1cccc(CN2CCC(Cc3cnc(CN(C)C)cn3)CC2)c1	22.5
CCc1nc(-c2cncnc2C2CCCNC2)no1 (configuration not stated)	-1.26
CN(C(=O)c1ccc(C#N)cc1)C1CCN(c2ccccn2)CC1	12.7
O=C(O)C(c1ccc(Cl)c(F)c1)N1CCN(Cc2ccccn2)CC1 (configuration not stated)	-2.57
Cc1nc(CC(C)C)cc(C(=O)N2C[C@@H](CN(C)C)[C@@H](CO)C2)n1	6.25
CCc1cc(N2CCNCC2)n2nc(C)c(C)c2n1	-3.36
Cc1ccc(N2CC[C@@H]3[C@@H]2CCN3C(=O)Cc2ccccc2)nn1	5.36
O=C1OCCC1N1CCN(C(=O)Cc2ccccc2Cl)CC1 (configuration not stated)	-0.257
CS(=O)(=O)N1CCCC12CCCN(C(=O)c1ccncc1)C2 (configuration not stated)	-7.69
CCc1n[nH]c(C2CN(CCCS(C)(=O)=O)CCO2)n1 (configuration not stated)	32.1
CCN1CC[C@@H]2OC[C@H](C(=O)NCc3cccs3)C[C@@H]2C1	45.7
Cc1ccc(C(C)NCCc2nccn2Cc2ccccc2)o1 (configuration not stated)	-10.1
CC(CCc1ccccc1)N1CCC(C(=O)Nc2ccccn2)CC1 (configuration not stated)	22
CC(=O)N1CCOCC(Cc2ccc3c(ccn3C)c2)C1 (configuration not stated)	-0.747
Cc1ccoc1C(=O)N1CCn2nnc(COc3cccnc3)c2C1	-11.5
O=C(NCc1ccc(N2CCSCC2)cc1)NCc1cc[nH]n1	-10.4
c1cc(CNCC2OCCc3cn(CC4CCOCC4)nc32)ccn1 (configuration not stated)	9.22
Cc1cnc(NC2CCN(CC(=O)Nc3ccccc3)CC2)nc1C	2.9
NC(=O)CS(=O)(=O)Cc1ccc(OCc2ccc(F)cc2)cc1	-2.96

SMILES	cytotoxicity at 70.5 h [%]
CS(=O)(=O)N1CCC(C(=O)NC(Cc2ccsc2)c2cccnc2)CC1 (configuration not stated)	23.2
Cc1nn(C)cc1S(=O)(=O)NCC(c1ccccc1Cl)N1CCCC1 (configuration not stated)	-6.74
N#Cc1ccc(C(=O)N2C[C@H](OCc3cccnc3)[C@H]3COC[C@H]32)cc1	3.47
COC1(CNC(=O)c2ccc(Cl)c(Cl)c2)CCSC1 (configuration not stated)	-15
Cc1cccnc1NC(=O)c1ccc(-n2cncn2)nn1	1.65
O=C(CCN1C[C@@H]2CC[C@H]1C2)N1CCN(c2cccc(Cl)c2)C(=O)C1	-0.743
Cc1nc(C2CCCN2C(=O)Cc2ccc3c(c2)OCO3)nc(O)c1C (configuration not stated)	-5.28
CN1CCCCC[C@@H]2[C@@H]1[C@H](c1ccccc1)CN2C(=O)c1cccnc1	3.63
Cn1ncc2c(NC3CCC3)nc(-c3ccncc3)nc21	-0.235
Cc1nc2c(c(=O)n1C)CCN(C(=O)CCc1ccccn1)CC2	-5.46
Cc1csc2c(N3CCNC(C(=O)NCc4cccnc4)C3)ncnc12 (configuration not stated)	18.9
Cc1ncsc1C(=O)N1CCc2nnc(C3CCCCN3C)n2CC1 (configuration not stated)	-2.05
Cc1nn(C)cc1-c1ccnc(NCCN)n1	-8.28
Cn1cnc2c1CCN(Cc1csc(-c3ccccc3)n1)C2	24.1
Cc1noc(C)c1-c1cccc(C2CCN(CC(=O)N(C)C)CC2)n1	-2.68
CCOCC(=O)N1CCOCC2(CCN(c3ncccn3)C2)C1 (configuration not stated)	2.44
CC(C(=O)O)N1CCc2onc(-c3ccc(F)c(F)c3)c2C1 (configuration not stated)	-6.87
CCc1noc(CNC2CCCN(Cc3noc(C4CC4)n3)C2)n1 (configuration not stated)	-5.98
CN1CCc2ccc(NCc3cscn3)cc2C1=O	2.5
O=C(c1ccnc(NC2CC2)c1)N1CCCC1c1cccc(Br)c1 (configuration not stated)	-6.56
O=C(C1CC=CC1)N1CCc2ncnc(-c3ccncc3)c2CC1	0.995
O=C(CCc1cccc(F)c1F)N1CCN(Cc2ccco2)CC1	-8.06
Cc1cc(F)ccc1OC1(C(=O)O)CCN(Cc2cccnc2)CC1	3.7

SMILES	cytotoxicity at 70.5 h [%]
CC(C)OCCOCC(O)CN(C)C(=O)Nc1ccc(F)cc1Cl (configuration not stated)	-2.75
Cc1cc(=O)n(CC(=O)NCC2CCCO2)c(-c2ccccc2)n1 (configuration not stated)	2.72
COc1ccnc(N2CCN(C(=O)c3csc(C(C)C)n3)CC2)n1	9.24
CNC(=O)C1CNCCN1C(=O)c1ccc(C(F)(F)F)nc1C (configuration not stated)	-5.69
Cn1c(C(=O)N2CCC(CC(N)=O)CC2)c(Cl)c2ccccc21	28.2
O=C(CCc1cscn1)N1CCC(C(=O)O)(c2ccccc2)CC1	4.76
COCCN(c1ccncc1)S(=O)(=O)c1cc(C)cc(F)c1	-10.7
CC(C)c1nccc([C@@H]2C[C@@H]3CCN(Cc4ccco4)C[C@H]3O2)n1	38.3
CCC(CC)(CNC(=O)NC1CCCC1(C)C)S(C)(=O)=O (configuration not stated)	-7.23
O=C(Cc1cccs1)N1CCOCC1CO (configuration not stated)	-3.61
Cc1nc2n(n1)CCN(S(=O)(=O)c1ccc(Cl)cc1)C2	-3.28
CCc1cc(C(=O)N2CCCC(c3[nH]ncc3S(C)(=O)=O)C2)no1 (configuration not stated)	-7.59
CCOC(=O)c1s/c(=N\C(=O)COc2cnc(C)cc2O)[nH]c1C	-19
O=C(CO)N1CC[C@@H](N2CCN(c3ccccc3F)CC2)[C@H](O)C1	6.39
COc1c(CNCC(c2cccc(F)c2)N(C)C)c(C(C)C)nn1C (configuration not stated)	12.7
CS(=O)(=O)CCNC(=O)Nc1sc2ccccc2c1Cl	-11.7
CNS(=O)(=O)Cc1ccc(CNC(=O)Nc2cn[nH]c2)cc1	-11.3
O=S(=O)(C1CC1)N1CCC2(CN(c3ccccn3)C2)C1	-7.95
Cc1nc2ccccc2nc1CN1CCCCC1Cn1cccn1 (configuration not stated)	-12.7
CC(C)(C)c1coc([C@@H]2COCCN2Cc2ncc[nH]2)n1	-0.512
